Measurements as given in the supplement of paper PMC10307832.

Key:
Assay in all cases: relative viability (nuclei count vs DMSO), 5 days (fraction); higher = more cells survive
BX 795 + Phenformin = compound: O=C(NCCCNc1nc(Nc2cccc(NC(=O)N3CCCC3)c2)ncc1I)c1cccs1 [BX 795] + N=C(N)NC(=N)NCCc1ccccc1 [Phenformin] (partner 250 µM)
How it was run: (§1)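 For relative viability, nuclei counts in treated wells were divided by those in vehicle wells. Lung cancer cell lines had been pin-tool dosed in 1536-well plates the day after seeding and cultured for 5 days, then fixed and stained in one step (final 0.05% Triton X-100, 1% formaldehyde, 1 ug/ml Hoechst) and imaged at 4×. Doses were one drug alone or a fixed anchor-drug dose plus five library-drug doses (not always all listed) in √10 steps, and values are duplicate-plate medians.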

BX 795 + Olaparib = compound: O=C(NCCCNc1nc(Nc2cccc(NC(=O)N3CCCC3)c2)ncc1I)c1cccs1 [BX 795] + O=C(c1cc(Cc2n[nH]c(=O)c3ccccc23)ccc1F)N1CCN(C(=O)C2CC2)CC1 [Olaparib] (partner 8 µM)
How it was run: as §1

BX 795 + OSI-027 = compound: O=C(NCCCNc1nc(Nc2cccc(NC(=O)N3CCCC3)c2)ncc1I)c1cccs1 [BX 795] + COc1cccc2cc(-c3nc([C@H]4CC[C@H](C(=O)O)CC4)n4ncnc(N)c34)[nH]c12 [OSI-027] (partner 0.5 µM)
How it was run: as §1

BX 795 + Pictilisib = compound: O=C(NCCCNc1nc(Nc2cccc(NC(=O)N3CCCC3)c2)ncc1I)c1cccs1 [BX 795] + CS(=O)(=O)N1CCN(Cc2cc3nc(-c4cccc5[nH]ncc45)nc(N4CCOCC4)c3s2)CC1 [Pictilisib] (partner 1 µM)
How it was run: as §1

BX 795 + Luminespib = compound: O=C(NCCCNc1nc(Nc2cccc(NC(=O)N3CCCC3)c2)ncc1I)c1cccs1 [BX 795] + CCNC(=O)c1noc(-c2cc(C(C)C)c(O)cc2O)c1-c1ccc(CN2CCOCC2)cc1 [Luminespib] (partner 0.01 µM)
How it was run: as §1

Cell Line	relative viability (BX 795 + Phenformin; first compound 0.04 µM)	relative viability (BX 795 + Phenformin; first compound 0.1265 µM)	relative viability (BX 795 + Phenformin; first compound 0.4 µM)	relative viability (BX 795 + Phenformin; first compound 1.265 µM)	relative viability (BX 795 + Olaparib; first compound 0.04 µM)	relative viability (BX 795 + Olaparib; first compound 0.1265 µM)	relative viability (BX 795 + Olaparib; first compound 0.4 µM)	relative viability (BX 795 + Olaparib; first compound 1.265 µM)	relative viability (BX 795 + OSI-027; first compound 0.04 µM)	relative viability (BX 795 + OSI-027; first compound 0.1265 µM)	relative viability (BX 795 + OSI-027; first compound 0.4 µM)	relative viability (BX 795 + OSI-027; first compound 1.265 µM)	relative viability (BX 795 + Pictilisib; first compound 0.04 µM)	relative viability (BX 795 + Pictilisib; first compound 0.1265 µM)	relative viability (BX 795 + Pictilisib; first compound 0.4 µM)	relative viability (BX 795 + Pictilisib; first compound 1.265 µM)	relative viability (BX 795 + Luminespib; first compound 0.04 µM)	relative viability (BX 795 + Luminespib; first compound 0.1265 µM)	relative viability (BX 795 + Luminespib; first compound 0.4 µM)	relative viability (BX 795 + Luminespib; first compound 1.265 µM)
NCI-H358	0.296	0.319	0.257	0.117	0.724	0.709	0.486	0.368	0.761	0.796	0.666	0.513	0.387	0.251	0.327	0.245	0.471	0.325	0.635	0.218
NCI-H441	0.986	0.831	0.983	0.531	0.665	0.623	0.497	0.413	0.731	0.57	0.891	0.399	0.609	0.503	0.666	0.37	0.323	0.297	0.333	0.278
NCI-H460	0.5	0.609	0.415	0.372	0.371	0.427	0.154	0.346	0.633	0.561	0.543	0.224	0.361	0.418	0.374	0.261	0.0385	0.0327	0.0422	0.0269
NCI-H520	0.699	0.658	0.4	0.233	0.334	0.357	0.307	0.22	0.226	0.255	0.19	0.201	0.303	0.321	0.279	0.28	0.211	0.2	0.225	0.277
NCI-H596	0.681	0.802	0.805	0.887	0.729	0.673	0.632	0.766	0.866	0.705	0.664	0.684	0.449	0.38	0.417	0.431	1.21	1	1.14	0.764
NCI-H647	0.456	0.541	0.572	0.266	0.406	0.565	0.288	0.232	0.723	0.826	0.581	0.584		0.363	0.438	0.343	0.149	0.134	0.104	0.105
NCI-H650	0.467	0.425	0.5	0.408	0.451	0.367	0.412	0.259	0.527	0.556	0.559	0.391	0.86	0.979	0.762	0.623	0.765	0.759	0.65	0.745
NCI-H661	0.261	0.245	0.274	0.238	0.742	0.826	0.662	0.583	0.514	0.688	0.554	0.511	0.461	0.484	0.39	0.441	1	0.951	0.828	0.71
NCI-H727	0.571	0.566	0.444	0.617	0.725	0.72	1.02	0.685	0.761	0.635	0.537	0.557	0.498	0.643	0.31	0.315	0.345	0.257	0.29	0.389
NCI-H838	0.494	0.538	0.425	0.214	0.853	0.757	0.643	0.248	0.386	0.338	0.379	0.303	0.449	0.425	0.382	0.326	0.255	0.292	0.226	0.181
NCI-H1355	0.491	0.455	0.465	0.357	0.827	0.663	0.806	0.571	0.407	0.405	0.44	0.379	0.451	0.423	0.436	0.424	0.721	0.787	0.874	0.579
NCI-H1395	0.471	0.462	0.458	0.431	0.452	0.468	0.449	0.501	0.635	0.686	0.482	0.498	0.673	0.562	0.461	0.533	0.641	0.634	0.471	0.555
NCI-H1437	0.279	0.336	0.328	0.257	0.632	0.664	0.651	0.483	0.879	0.89	0.834	0.847	0.488	0.411	0.417	0.55	1.13	1.14	1.17	1.12
NCI-H1650	0.484	0.417	0.393	0.239	0.903	0.713	0.711	0.814	0.687	0.703	0.53	0.414	0.698	0.576	0.517	0.498	0.212	0.191	0.206	0.189
NCI-H1651	0.322	0.356	0.312	0.24	0.193	0.166	0.167	0.163	0.588	0.716	0.576	0.765	0.569	0.617	0.615	0.645	0.982	0.987	0.78	0.511
NCI-H1666	0.362	0.568	0.483	0.49	0.939	0.707	0.938	0.726	0.859	0.876	0.993	0.803	0.364	0.516	0.449	0.273	1	1.04	1.07	0.893

Cell Line	relative viability (BX 795 + Phenformin; first compound 0.04 µM)	relative viability (BX 795 + Phenformin; first compound 0.1265 µM)	relative viability (BX 795 + Phenformin; first compound 0.4 µM)	relative viability (BX 795 + Phenformin; first compound 1.265 µM)	relative viability (BX 795 + Olaparib; first compound 0.04 µM)	relative viability (BX 795 + Olaparib; first compound 0.1265 µM)	relative viability (BX 795 + Olaparib; first compound 0.4 µM)	relative viability (BX 795 + Olaparib; first compound 1.265 µM)	relative viability (BX 795 + OSI-027; first compound 0.04 µM)	relative viability (BX 795 + OSI-027; first compound 0.1265 µM)	relative viability (BX 795 + OSI-027; first compound 0.4 µM)	relative viability (BX 795 + OSI-027; first compound 1.265 µM)	relative viability (BX 795 + Pictilisib; first compound 0.04 µM)	relative viability (BX 795 + Pictilisib; first compound 0.1265 µM)	relative viability (BX 795 + Pictilisib; first compound 0.4 µM)	relative viability (BX 795 + Pictilisib; first compound 1.265 µM)	relative viability (BX 795 + Luminespib; first compound 0.04 µM)	relative viability (BX 795 + Luminespib; first compound 0.1265 µM)	relative viability (BX 795 + Luminespib; first compound 0.4 µM)	relative viability (BX 795 + Luminespib; first compound 1.265 µM)
NCI-H1734	0.419	0.375	0.402	0.307	0.612	0.662	0.501	0.514	0.536	0.592	0.555	0.419	0.463	0.471	0.411	0.368	0.173	0.209	0.154	0.149
NCI-H1755	0.618	0.564	0.592	0.546	0.961	0.858	0.956	0.725	0.711	0.74	0.794	0.552	0.442	0.418	0.35	0.305	0.635	0.412	0.283	0.388
NCI-H1792	0.431	0.463	0.216	0.178	0.401		0.302	0.422	0.765	0.728	0.702	0.53	0.286	0.269	0.24	0.191	0.477	0.336	0.432	0.384
NCI-H1793	0.358	0.35	0.366	0.289	0.972	0.856	0.928	0.804	0.34	0.292	0.329	0.241	0.399	0.333	0.333	0.257	0.153	0.137	0.168	0.182
NCI-H1915	0.388	0.389	0.38	0.301	0.297	0.26	0.217	0.242	0.7	0.6	0.663	0.469	0.98	0.831	0.954	0.798	0.688	0.891	0.71	0.624
NCI-H1944	0.254	0.203	0.234	0.191	0.476	0.403	0.542	0.403	0.51	0.459	0.488	0.381	0.376	0.329	0.367	0.363	0.739	0.729	0.758	0.595
NCI-H1975	0.409	0.442	0.422	0.317	0.811	0.961	0.632	0.586	0.83	0.7	0.574	0.424	0.3	0.328	0.26	0.224	0.228	0.427	0.139	0.183
NCI-H1993	0.492	0.499	0.485	0.523	0.847	0.92	1.16	0.92	0.528	0.537	0.531	0.532	0.83	0.79	0.793	0.806	0.686	1.1	0.726	0.532
NCI-H2009	0.492	0.447	0.447	0.305	0.717	0.632	0.575	0.355	0.612	0.595	0.604	0.386	0.777	0.744	0.823	0.626	1.02	0.932	1.11	0.83
NCI-H2023	0.426	0.378	0.305	0.195	0.461	0.494	0.403	0.26	0.272	0.398	0.173	0.182	0.152	0.239	0.188	0.197	0.766	0.613	0.442	0.272
NCI-H2085	0.73	0.83	0.699	0.606	0.827	0.833	0.914	0.72	0.732	0.817	0.73	0.648	0.463	0.454	0.433	0.489	0.38	0.416	0.441	0.332
NCI-H2087	0.547	0.545	0.563	0.411	0.833	0.761	0.781	0.448	0.793	0.82	0.848	0.502	0.999	1.02	1.03	0.756	0.188	0.199	0.157	0.147
NCI-H2126	0.534	0.542	0.605	0.498	0.982	0.909	1	0.893	0.837	0.677	0.818	0.699	0.479	0.462	0.566	0.448	0.902	0.955	0.812	0.944
NCI-H2170	0.46	0.383	0.446	0.413	0.597	0.681	0.538	0.487	0.725	0.643	0.791	0.674	0.3	0.283	0.283	0.249	0.83	0.541	0.39	0.544
NCI-H2228	0.325	0.469	0.272	0.15	0.788	0.74	0.559	0.311	0.483	0.641	0.471	0.265	0.517	0.439	0.377	0.239	0.104	0.127	0.122	0.169
